Experimental data: patent US10238670B2, “9-aminomethyl minocycline compounds and methods of use thereof in urinary tract infection (UTI) treatment” (Paratek Pharmaceuticals, Inc., priority 2016, dated 2019)
≈ marks a conversion by molar mass, not a printed value. Like-named read-outs stand apart in the source and are kept apart here.

What was measured:
Assay in all cases: In vitro MIC, 2010 surveillance isolates
MSSA = type: cell-based; conditions: for Cumulative % Inhibition at MIC: N=5713
E. faecium VS = type: cell-based; conditions: for Cumulative % Inhibition at MIC: N=575
E. coli ESBL+ = type: cell-based, Escherichia coli; conditions: for Cumulative % Inhibition at MIC: N=795
E. faecalis VNS = type: cell-based; conditions: for Cumulative % Inhibition at MIC: N=54
K. oxytoca = type: cell-based; conditions: for Cumulative % Inhibition at MIC: N=377
K. pneumoniae ESBL− = type: cell-based, Klebsiella pneumoniae; conditions: for Cumulative % Inhibition at MIC: N=1381
MRSA = type: cell-based; conditions: for Cumulative % Inhibition at MIC: N=4192
E. cloacae CeftazR = type: cell-based; conditions: for Cumulative % Inhibition at MIC: N=254

Structure (SMILES): CN(C)c1cc(CNCC(C)(C)C)c(O)c2c1C[C@H]1C[C@H]3[C@H](N(C)C)C(O)=C(C(N)=O)C(=O)[C@@]3(O)C(O)=C1C2=O [Compound 1, 9-[(2,2-dimethyl-propylamino)-methyl]-minocycline]
- MIC90 (MSSA; Asia/Pac, N=641): 0.5 µg/mL (≈ 0.898 µM)
- MIC90 (MSSA; Europe, N=2109): 0.25 µg/mL (≈ 0.449 µM)
- MIC90 (MSSA; L. Amer, N=590): 0.25 µg/mL (≈ 0.449 µM)
- Cumulative % Inhibition at MIC (MSSA; MIC 1 μg/ml): 99.9%
- Cumulative % Inhibition at MIC (MSSA; MIC 2 μg/ml): 100%
- Cumulative % Inhibition at MIC (MSSA; MIC ≤0.5 μg/ml): 99.7%
- MIC90 (MSSA; N America, N=2373): 0.25 µg/mL (≈ 0.449 µM)
- MIC90 (E. faecium VS; Asia/Pac, N=106): 0.25 µg/mL (≈ 0.449 µM)
- MIC90 (E. faecium VS; Europe, N=303): 0.12 µg/mL (≈ 0.216 µM)
- MIC90 (E. faecium VS; L. Amer, N=51): 0.12 µg/mL (≈ 0.216 µM)
- Cumulative % Inhibition at MIC (E. faecium VS; MIC 1 μg/ml): 100%
- Cumulative % Inhibition at MIC (E. faecium VS; MIC ≤0.5 μg/ml, listed as head image P00003): 99.8%
- MIC90 (E. faecium VS; N America, N=115): 0.25 µg/mL (≈ 0.449 µM)
- MIC90 (E. coli ESBL+; Asia/Pac, N=219): 2 µg/mL (≈ 3.59 µM)
- MIC90 (E. coli ESBL+; ESBL-producing E. coli): 4 µg/mL (≈ 7.19 µM)
- MIC90 (E. coli ESBL+; Escherichia coli, ESBL-producing E. coli, read-out: MIC90): < 4 µg/mL
- MIC90 (E. coli ESBL+; Europe, N=274): 4 µg/mL (≈ 7.19 µM)
- MIC90 (E. coli ESBL+; L. Amer, N=168): 4 µg/mL (≈ 7.19 µM)
- Cumulative % Inhibition at MIC (E. coli ESBL+; MIC 1 μg/ml): 63.0%
- Cumulative % Inhibition at MIC (E. coli ESBL+; MIC 2 μg/ml): 87.5%
- Cumulative % Inhibition at MIC (E. coli ESBL+; MIC 4 μg/ml): 97.7%
- Cumulative % Inhibition at MIC (E. coli ESBL+; MIC 8 μg/ml): 99.5%
- Cumulative % Inhibition at MIC (E. coli ESBL+; MIC 16 μg/ml): 99.9%
- Cumulative % Inhibition at MIC (E. coli ESBL+; MIC ≤0.5 μg/ml, listed as head image P00006): 30.4%
- Cumulative % Inhibition at MIC (E. coli ESBL+; MIC ≥32 μg/ml): 100%
- MIC90 (E. coli ESBL+; N America, N=134): 4 µg/mL (≈ 7.19 µM)
- range of MICs (N <10, shown instead of MIC90) (E. faecalis VNS; Asia/Pac, N=1): 0.5
- range of MICs (N <10, shown instead of MIC90) (E. faecalis VNS; Europe, N=8): 0.06-0.5
- range of MICs (N <10, shown instead of MIC90) (E. faecalis VNS; L. Amer, N=7): ≤0.015-0.06
- Cumulative % Inhibition at MIC (E. faecalis VNS; MIC 1 μg/ml): 100%
- Cumulative % Inhibition at MIC (E. faecalis VNS; MIC ≤0.5 μg/ml, listed as head image P00002): 98.1%
- MIC90 (E. faecalis VNS; N America, N=38): 0.25 µg/mL (≈ 0.449 µM)
- MIC90 (K. oxytoca; Asia/Pac, N=17): 2 µg/mL (≈ 3.59 µM)
- MIC90 (K. oxytoca; Europe, N=158): 2 µg/mL (≈ 3.59 µM)
- MIC90 (K. oxytoca; L. Amer, N=25): 4 µg/mL (≈ 7.19 µM)
- Cumulative % Inhibition at MIC (K. oxytoca; MIC 1 μg/ml): 57.6%
- Cumulative % Inhibition at MIC (K. oxytoca; MIC 2 μg/ml): 89.4%
- Cumulative % Inhibition at MIC (K. oxytoca; MIC 4 μg/ml): 95.2%
- Cumulative % Inhibition at MIC (K. oxytoca; MIC 8 μg/ml): 98.7%
- Cumulative % Inhibition at MIC (K. oxytoca; MIC 16 μg/ml): 99.7%
- Cumulative % Inhibition at MIC (K. oxytoca; MIC ≤0.5 μg/ml, listed as head image P00013): 2.1%
- Cumulative % Inhibition at MIC (K. oxytoca; MIC ≥32 μg/ml): 100%
- MIC90 (K. oxytoca; N America, N=177): 4 µg/mL (≈ 7.19 µM)
- MIC90 (K. pneumoniae ESBL−; Asia/Pac, N=189): 4 µg/mL (≈ 7.19 µM)
- MIC90 (K. pneumoniae ESBL−; Europe, N=361): 4 µg/mL (≈ 7.19 µM)
- MIC90 (K. pneumoniae ESBL−; L. Amer, N=160): 4 µg/mL (≈ 7.19 µM)
- Cumulative % Inhibition at MIC (K. pneumoniae ESBL−; MIC 1 μg/ml): 29.1%
- Cumulative % Inhibition at MIC (K. pneumoniae ESBL−; MIC 2 μg/ml): 79.9%
- Cumulative % Inhibition at MIC (K. pneumoniae ESBL−; MIC 4 μg/ml): 92.1%
- Cumulative % Inhibition at MIC (K. pneumoniae ESBL−; MIC 8 μg/ml): 95.6%
- Cumulative % Inhibition at MIC (K. pneumoniae ESBL−; MIC 16 μg/ml): 98.3%
- Cumulative % Inhibition at MIC (K. pneumoniae ESBL−; MIC ≤0.5 μg/ml, listed as head image P00009): 2.4%
- Cumulative % Inhibition at MIC (K. pneumoniae ESBL−; MIC ≥32 μg/ml): 100%
- MIC90 (K. pneumoniae ESBL−; N America, N=671): 4 µg/mL (≈ 7.19 µM)
- MIC90 (MRSA; Asia/Pac, N=428): 1 µg/mL (≈ 1.8 µM)
- MIC90 (MRSA; Europe, N=750): 0.25 µg/mL (≈ 0.449 µM)
- MIC90 (MRSA; L. Amer, N=506): 0.25 µg/mL (≈ 0.449 µM)
- Cumulative % Inhibition at MIC (MRSA; MIC 1 μg/ml): 98.4%
- Cumulative % Inhibition at MIC (MRSA; MIC 2 μg/ml): 99.8%
- Cumulative % Inhibition at MIC (MRSA; MIC 4 μg/ml): 100%
- Cumulative % Inhibition at MIC (MRSA; MIC ≤0.5 μg/ml): 95.4%
- MIC90 (MRSA; N America, N=2508): 0.5 µg/mL (≈ 0.898 µM)
- MIC90 (E. cloacae CeftazR; Asia/Pac, N=63): 8 µg/mL (≈ 14.4 µM)
- MIC90 (E. cloacae CeftazR; Europe, N=72): 8 µg/mL (≈ 14.4 µM)
- MIC90 (E. cloacae CeftazR; L. Amer, N=42): 4 µg/mL (≈ 7.19 µM)
- Cumulative % Inhibition at MIC (E. cloacae CeftazR; MIC 1 μg/ml): 7.9%
- Cumulative % Inhibition at MIC (E. cloacae CeftazR; MIC 2 μg/ml): 54.3%
- Cumulative % Inhibition at MIC (E. cloacae CeftazR; MIC 4 μg/ml): 81.9%
- Cumulative % Inhibition at MIC (E. cloacae CeftazR; MIC 8 μg/ml): 90.2%
